In ChEMBL document CHEMBL4616696, “Construction and Evaluation of Molecular Models: Guide and Design of Novel SE Inhibitors” (ACS Med Chem Lett, 2020):
Converted amounts (≈) assume the structure as drawn. The source made the active and inactive calls. No cut-off for these calls is given here.

Key:
Aspergillus fumigatus = assay: Antifungal activity against Aspergillus fumigatus KM8001 assessed as reduction in fungal growth by NCCLS method; type: functional
Candida albicans [1] = assay: Antifungal activity against Candida albicans ATCC 10231 assessed as reduction in fungal growth by NCCLS method; type: functional
Pichia kudriavzevii = assay: Antifungal activity against Candida krusei ATCC 6258 assessed as reduction in fungal growth by NCCLS method; type: functional
Nakaseomyces glabratus = assay: Antifungal activity against Candida glabrata ATCC 0001 assessed as reduction in fungal growth by NCCLS method; type: functional
Candida tropicalis = assay: Antifungal activity against Candida tropicalis ATCC 1369 assessed as reduction in fungal growth by NCCLS method; type: functional
Candida albicans [2] = assay: Antifungal activity against fluconazole-resistant Candida albicans CaR assessed as reduction in fungal growth by NCCLS method; type: functional
Candida albicans [3] = assay: Antifungal activity against fluconazole-resistant Candida albicans 904 assessed as reduction in fungal growth by NCCLS method; type: functional
Candida albicans [4] = assay: Antifungal activity against fluconazole-resistant Candida albicans 17# assessed as reduction in fungal growth by NCCLS method; type: functional
Candida albicans [5] = assay: Antifungal activity against fluconazole-resistant Candida albicans 901 assessed as reduction in fungal growth by NCCLS method; type: functional
Candida albicans [6] = assay: Antifungal activity against fluconazole-resistant Candida albicans 632 assessed as reduction in fungal growth by NCCLS method; type: functional
Candida albicans [7] = assay: Antifungal activity against Candida albicans ATCC SC5314 assessed as reduction in cell division at 4 ug/ml measured upto 48 hrs by TEM analysis; type: functional, organism-based
[8] = target: T1, Squalene epoxidase ERG1 (Candida albicans) (UniProt Q92206); assay: Inhibition of SE in Candida albicans ATCC SC5314 assessed as inhibition of ergosterol biosynthesis by measuring ergosterol content at 4 ug/ml incubated for 16 hrs by LC-MS analysis; design: scale not given: the % may be the effect or the level left
T1 sequence (whole entry): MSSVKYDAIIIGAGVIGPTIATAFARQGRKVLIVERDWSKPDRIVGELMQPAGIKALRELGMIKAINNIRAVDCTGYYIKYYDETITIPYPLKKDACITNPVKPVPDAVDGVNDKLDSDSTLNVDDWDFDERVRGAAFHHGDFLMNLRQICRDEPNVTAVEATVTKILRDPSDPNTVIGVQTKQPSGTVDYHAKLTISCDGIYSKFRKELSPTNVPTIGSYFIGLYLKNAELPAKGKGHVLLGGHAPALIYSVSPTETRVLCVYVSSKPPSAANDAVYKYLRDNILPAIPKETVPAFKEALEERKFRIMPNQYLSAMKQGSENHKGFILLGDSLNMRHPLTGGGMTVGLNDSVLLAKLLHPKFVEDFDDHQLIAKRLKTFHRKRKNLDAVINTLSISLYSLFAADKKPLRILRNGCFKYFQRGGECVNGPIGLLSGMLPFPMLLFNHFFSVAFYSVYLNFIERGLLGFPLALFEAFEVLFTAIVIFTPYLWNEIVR

[9] = target: T1, Squalene epoxidase ERG1 (Candida albicans); assay: Inhibition of SE in Candida albicans ATCC SC5314 assessed as inhibition of ergosterol biosynthesis by measuring unknown sterol content at 0.125 ug/ml incubated for 16 hrs by LC-MS analysis; design: scale not given: the % may be the effect or the level left
[10] = target: T1, Squalene epoxidase ERG1 (Candida albicans); assay: Inhibition of SE in Candida albicans ATCC SC5314 assessed as inhibition of ergosterol biosynthesis by measuring ergosterol content at 0.125 ug/ml incubated for 16 hrs by LC-MS analysis; design: scale not given: the % may be the effect or the level left
[11] = Stability in human plasma assessed as compound remaining incubated for 120 mins; type: ADME, cell-free; conditions: read-out: Stability
[12] = target: T1, Squalene epoxidase ERG1 (Candida albicans); assay: Inhibition of SE in Candida albicans ATCC SC5314 assessed as inhibition of ergosterol biosynthesis by measuring increase in squalene content at 0.5 ug/ml incubated for 16 hrs by LC-MS analysis relative to control; design: scale not given: the % may be the effect or the level left
Candida albicans [13] = assay: Antifungal activity against Candida albicans ATCC SC5314 assessed as cell membrane disruption at 4 ug/ml measured upto 48 hrs by TEM analysis; type: functional, organism-based
[14] = target: T1, Squalene epoxidase ERG1 (Candida albicans); assay: Inhibition of SE in Candida albicans ATCC SC5314 assessed as inhibition of ergosterol biosynthesis by measuring eburicol content at 0.5 ug/ml incubated for 16 hrs by LC-MS analysis; design: scale not given: the % may be the effect or the level left
[15] = target: T1, Squalene epoxidase ERG1 (Candida albicans); assay: Inhibition of SE in Candida albicans ATCC SC5314 assessed as inhibition of ergosterol biosynthesis by measuring eburicol content at 4 ug/ml incubated for 16 hrs by LC-MS analysis; design: scale not given: the % may be the effect or the level left
[16] = target: T1, Squalene epoxidase ERG1 (Candida albicans); assay: Inhibition of SE in Candida albicans ATCC SC5314 assessed as inhibition of ergosterol biosynthesis by measuring increase in squalene content at 0.125 ug/ml incubated for 16 hrs by LC-MS analysis relative to control; design: scale not given: the % may be the effect or the level left
[17] = target: T1, Squalene epoxidase ERG1 (Candida albicans); assay: Inhibition of SE in Candida albicans ATCC SC5314 assessed as inhibition of ergosterol biosynthesis by measuring ergosterol content at 0.5 ug/ml incubated for 16 hrs by LC-MS analysis; design: scale not given: the % may be the effect or the level left
[18] = target: T1, Squalene epoxidase ERG1 (Candida albicans); assay: Inhibition of SE in Candida albicans ATCC SC5314 assessed as inhibition of ergosterol biosynthesis by measuring unknown sterol content at 4 ug/ml incubated for 16 hrs by LC-MS analysis; design: scale not given: the % may be the effect or the level left
[19] = target: T1, Squalene epoxidase ERG1 (Candida albicans); assay: Inhibition of SE in Candida albicans ATCC SC5314 assessed as inhibition of ergosterol biosynthesis by measuring unknown sterol content at 0.5 ug/ml incubated for 16 hrs by LC-MS analysis; design: scale not given: the % may be the effect or the level left
[20] = Stability in human plasma assessed as compound remaining incubated for 60 mins; type: ADME, cell-free; conditions: read-out: Stability
Candida albicans [21] = assay: Antifungal activity against Candida albicans ATCC SC5314 assessed as cell wall disruption at 4 ug/ml measured upto 48 hrs by TEM analysis; type: functional, organism-based
[22] = target: T1, Squalene epoxidase ERG1 (Candida albicans); assay: Inhibition of SE in Candida albicans ATCC SC5314 assessed as inhibition of ergosterol biosynthesis by measuring increase in squalene content at 4 ug/ml incubated for 16 hrs by LC-MS analysis relative to control; design: scale not given: the % may be the effect or the level left
Candida albicans [23] = assay: Antifungal activity against Candida albicans ATCC SC5314 assessed as exudation of internal materials from cells at 4 ug/ml measured upto 48 hrs by TEM analysis; type: functional, organism-based
Candida albicans [24] = assay: Antifungal activity against Candida albicans ATCC SC5314 assessed as reduction in fungal growth density at 5 and 50 nmol/ml; type: functional, organism-based

SMILES	MIC (Aspergillus fumigatus)	MIC (Candida albicans [1])	MIC (Pichia kudriavzevii)	MIC (Nakaseomyces glabratus)	MIC (Candida tropicalis)	MIC (Candida albicans [2])	MIC (Candida albicans [3])	MIC (Candida albicans [4])	MIC (Candida albicans [5])	MIC (Candida albicans [6])	other results
CN(CC(=O)Nc1ccccc1)C(=O)c1ccc2ccccc2c1	> 16 µg/mL	0.5 µg/mL (≈ 1.57 µM)	1 µg/mL (≈ 3.14 µM)	2 µg/mL (≈ 6.28 µM)	0.5 µg/mL (≈ 1.57 µM)						
CN(CC(=O)Nc1ccccc1)C(=O)c1cccc2c1OCCO2	> 16 µg/mL	0.5 µg/mL (≈ 1.53 µM)	0.5 µg/mL (≈ 1.53 µM)	1 µg/mL (≈ 3.06 µM)	1 µg/mL (≈ 3.06 µM)						
OC(Cn1cncn1)(Cn1cncn1)c1ccc(F)cc1F [FLUCONAZOLE]						> 16 µg/mL	> 16 µg/mL	> 16 µg/mL	> 16 µg/mL	> 16 µg/mL	
CN(CC(=O)NCc1ccccc1)C(=O)c1ccc2ccccc2c1	8 µg/mL (≈ 24.1 µM)	0.5 µg/mL (≈ 1.5 µM)	0.5 µg/mL (≈ 1.5 µM)	0.25 µg/mL (≈ 0.752 µM)	0.25 µg/mL (≈ 0.752 µM)						
CN(CC(=O)NCc1ccccc1)C(=O)c1cccc2ccccc12	4 µg/mL (≈ 12 µM)	0.125 µg/mL (≈ 0.376 µM)	0.125 µg/mL (≈ 0.376 µM)	0.25 µg/mL (≈ 0.752 µM)	0.5 µg/mL (≈ 1.5 µM)	4 µg/mL (≈ 12 µM)	> 16 µg/mL	4 µg/mL (≈ 12 µM)	4 µg/mL (≈ 12 µM)	8 µg/mL (≈ 24.1 µM)	Activity (Candida albicans [7]): Active; Activity [8]: 31.7%; Activity [9]: 2.8%; Activity [10]: 87.4%; remaining at 2 h [11]: 91.6%; Activity [12]: 29.5%; Activity (Candida albicans [13]): Active; Activity [14]: 1.6%; Activity [15]: 2.3%; Activity [16]: 9.8%; Activity [17]: 63.9%; Activity [18]: 7.1%; Activity [19]: 5%; remaining at 1 h [20]: 94.5%; Activity (Candida albicans [21]): Active; Activity [22]: 58.9%; Activity (Candida albicans [23]): Active; Activity (Candida albicans [24]): Active
CN(CC(=O)NCc1ccccc1)C(=O)c1cccc2c1OCCO2	8 µg/mL (≈ 23.5 µM)	0.25 µg/mL (≈ 0.734 µM)	0.25 µg/mL (≈ 0.734 µM)	0.25 µg/mL (≈ 0.734 µM)	0.5 µg/mL (≈ 1.47 µM)	4 µg/mL (≈ 11.8 µM)	8 µg/mL (≈ 23.5 µM)	> 16 µg/mL	> 16 µg/mL	> 16 µg/mL	remaining at 2 h [11]: 83.5%; remaining at 1 h [20]: 87.3%
CN(CC(=O)Nc1ccccc1)C(=O)c1cccc2ccccc12	8 µg/mL (≈ 25.1 µM)	0.25 µg/mL (≈ 0.785 µM)	0.25 µg/mL (≈ 0.785 µM)	0.5 µg/mL (≈ 1.57 µM)	0.5 µg/mL (≈ 1.57 µM)	8 µg/mL (≈ 25.1 µM)	> 16 µg/mL	> 16 µg/mL	4 µg/mL (≈ 12.6 µM)	> 16 µg/mL	
CN(C/C=C/c1ccccc1)Cc1cccc2ccccc12 [NAFTIFINE]	> 16 µg/mL	0.5 µg/mL (≈ 1.74 µM)	1 µg/mL (≈ 3.48 µM)	0.5 µg/mL (≈ 1.74 µM)	0.5 µg/mL (≈ 1.74 µM)	4 µg/mL (≈ 13.9 µM)	8 µg/mL (≈ 27.8 µM)	8 µg/mL (≈ 27.8 µM)	> 16 µg/mL	8 µg/mL (≈ 27.8 µM)	Activity [8]: 28.4%; Activity [9]: 1.6%; Activity [10]: 83.6%; Activity [12]: 31.5%; Activity [14]: 0.7%; Activity [15]: 1.7%; Activity [16]: 14.8%; Activity [17]: 62.9%; Activity [18]: 5.4%; Activity [19]: 4.9%; Activity [22]: 64.5%
CN(CC(=O)Nc1ccccc1)C(=O)c1ccc2c(c1)OCCO2	8 µg/mL (≈ 24.5 µM)	1 µg/mL (≈ 3.06 µM)	2 µg/mL (≈ 6.13 µM)	0.5 µg/mL (≈ 1.53 µM)	0.5 µg/mL (≈ 1.53 µM)						
CN(CC(=O)NCc1ccccc1)C(=O)c1ccc2c(c1)OCCO2	> 16 µg/mL	0.5 µg/mL (≈ 1.47 µM)	0.5 µg/mL (≈ 1.47 µM)	2 µg/mL (≈ 5.88 µM)	0.5 µg/mL (≈ 1.47 µM)						
